From patent US9695155B2, “Herbicidal substituted pyrimidinyloxy benzene compounds” (E. I. DU PONT DE NEMOURS AND COMPANY, priority 2013, dated 2017) come the findings set out here.

One assay deals with kochia. Put plainly: Test A postemergence. It counts as in vivo, Kochia scoparia. A digest of the protocol: (§1)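 Scoring: eye-based comparison with untreated controls, 0 for no effect through 100 for complete control, at about day 10. Treatments: directed soil spray preemergence; foliar spray postemergence on 2–10 cm plants at the one- to two-leaf stage. Medium: loam soil with sand.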

The next assay relates to ragweed. Put plainly: Test A postemergence. It counts as in vivo, Ambrosia elatior. Summed up:
as §1

The mark [1] stands for this setting: 125 g ai/ha, 0 to 100 scale where 0 is no effect and 100 is complete control.
Where [2] appears, read: 500 g ai/ha, 0 to 100 scale where 0 is no effect and 100 is complete control.
The mark [3] stands for this setting: 31 g ai/ha, 0 to 100 scale, 0 no effect, 100 complete control.
The mark [4] stands for this setting: 1000 g ai/ha, 0 to 100 scale, 0 no effect, 100 complete control.
Setting [5] is: 125 g ai/ha, 0 to 100 scale, 0 no effect, 100 complete control.

Regarding `FCc1cccc(Oc2ncc(Cl)cn2)c1-n1cc(Br)cn1` [Compound 83], the “Plant response rating, Kochia” value in the assay with kochia (setting [1]) and in the assay on kochia (setting [2]) was 100 throughout. Besides, the “Plant response rating, Ragweed” value is given as 70 with ragweed (setting [1]) and 80 with ragweed (setting [2]).

As to `CCOc1cn(-c2c(Br)cccc2Oc2ncc(Cl)cn2)nn1` [Compound 84], the “Plant response rating, Kochia” value in the assay on kochia (setting [1]) and in the assay on kochia (setting [2]) was 100 each time. Further, the “Plant response rating, Ragweed” value with ragweed (setting [1]) is 50; in the assay on ragweed (setting [2]), 90.

As to `FCc1cccc(Oc2ncc(F)cn2)c1-n1cc(C(F)(F)F)cn1` [Compound 118], the “Plant response rating, Kochia” value in the assay on kochia (setting [3]) came to 60; in the assay on kochia (setting [1]) it was 100. The “Plant response rating, Ragweed” value in the assay on ragweed (setting [3]) is 70.

On to `FCc1cccc(Oc2ncc(Br)cn2)c1-n1cc(C(F)(F)F)cn1` [Compound 120], for which the entries for the “Plant response rating, Kochia” value in the assay on kochia (setting [3]) and with kochia (setting [1]) were 60 and 90, respectively. The “Plant response rating, Ragweed” value in the assay on ragweed (setting [3]) is 30.

With `Clc1cnc(Oc2cccc(Br)c2-n2cc(Br)nn2)nc1` [Compound 129], the “Kochia plant response rating” value with kochia (setting [1]) is 100. Also, in the assay on kochia (setting [2]), the “Plant response rating, Kochia” value was 100. The “Ragweed plant response rating” value in the assay with ragweed (setting [1]) is on record as 80. The “Plant response rating, Ragweed” value in the assay on ragweed (setting [2]) came out at 90.

Turning to `FC(F)(F)Sc1cnn(-c2ccccc2Oc2ncc(Cl)cn2)c1` [Compound 132, 5-chloro-2-[2-[4-(trifluoromethylthio)-1H-pyrazol-1-yl]phenoxy]pyrimidine], the “Kochia plant response rating” value in the assay with kochia (setting [1]) was determined as 90. Further, the “Plant response rating, Kochia” value with kochia (setting [2]) is listed as 100. Further, in the assay with ragweed (setting [1]), the “Ragweed plant response rating” value amounted to 10. In addition, the “Plant response rating, Ragweed” value in the assay on ragweed (setting [2]) came out at 30.

For the compound `Cc1cnc(Oc2cccc(C#N)c2-n2cc(I)cn2)nc1` [Compound 136], the “Kochia plant response rating” value in the assay on kochia (setting [1]) is on record as 70. For the same compound, the “Plant response rating, Kochia” value in the assay on kochia (setting [2]) stood at 100. Moreover, the “Ragweed plant response rating” value in the assay with ragweed (setting [1]) was determined as 50. The “Plant response rating, Ragweed” value in the assay with ragweed (setting [2]) is given as 100.

As to `COc1cnn(-c2c(C#N)cccc2Oc2ncc(Cl)cn2)c1` [Compound 137], the “Kochia plant response rating” value with kochia (setting [1]) was 80. The “Plant response rating, Kochia” value in the assay with kochia (setting [2]) was 100. In addition, the “Ragweed plant response rating” value in the assay on ragweed (setting [1]) is given as 20. Further, the “Plant response rating, Ragweed” value in the assay on ragweed (setting [2]) was determined as 100.

`CCCOc1cnn(-c2c(C#N)cccc2Oc2ncc(Cl)cn2)c1` [Compound 150]: the “Kochia plant response rating” value in the assay on kochia (setting [1]) is on record as 70. Also, in the assay with kochia (setting [2]), the “Plant response rating, Kochia” value was 100. Besides, the “Ragweed plant response rating” value in the assay on ragweed (setting [1]) was found to be 20. Also, the “Plant response rating, Ragweed” value in the assay with ragweed (setting [2]) is on record as 60.

`FCc1cn(-c2c(F)cccc2Oc2ncc(Cl)cn2)nn1` [Compound 154]: the “Plant response rating, Kochia” value with kochia (setting [4]) is reported as 100. Moreover, the “Plant response rating, Ragweed” value with ragweed (setting [4]) worked out at 100.

As to `Fc1cccc(Oc2ncc(Cl)cn2)c1-n1cc(C2CC2)nn1` [Compound 155], the “Plant response rating, Kochia” value with kochia (setting [4]) turned out to be 100. In addition, the “Plant response rating, Ragweed” value in the assay with ragweed (setting [4]) is 100.

For the compound `N#Cc1cccc(Oc2ncc(Cl)cn2)c1-n1cnc(C(F)(F)F)c1` [Compound 252, 3-[(5-chloro-2-pyrimidinyl)oxy]-2-[4-(trifluoromethyl)-1H-imidazol-1-yl]benzonitrile], the “Plant response rating, Kochia” value in the assay on kochia (setting [3]) was determined as 70; with kochia (setting [5]), 100; with kochia (setting [2]), 100. For the same compound, the “Plant response rating, Ragweed” value with ragweed (setting [3]) was found to be 20; in the assay with ragweed (setting [5]), 70; in the assay on ragweed (setting [2]), 90.

Turning to `Fc1cccc(Oc2ncc(Cl)cn2)c1-n1cc(OCC(F)(F)F)cn1` [Compound 270], the figures for the “Plant response rating, Kochia” value in the assay with kochia (setting [3]) and in the assay with kochia (setting [5]) were 60 and 70, respectively. For the same compound, the “Plant response rating, Ragweed” value is on record as 0 with ragweed (setting [3]) and 20 with ragweed (setting [5]).

With `N#Cc1cccc(Oc2ncc(Cl)cn2)c1-n1cc(-n2ccc(C(F)(F)F)n2)cn1` [Compound 284], the “Plant response rating, Kochia” value in the assay with kochia (setting [5]) was 60; in the assay with kochia (setting [2]) it was 100. For the same compound, the “Plant response rating, Ragweed” value in the assay with ragweed (setting [5]) and with ragweed (setting [2]) was 20 each time.
